Reference: US20250114367A1, “METHOD OF TREATING HAIR LOSS DISORDERS” (Sun Pharmaceutical Industries, Inc., priority 2023, published 2025)
Several values for one entry are separate records, joined by “and”; a condition that tells them apart may be missing. Equal entries are not always repeated.

Tests used:
subjects with AA = assay: Open-label extension (OLE) studies: SALT score over time; format: in vivo, human; conditions: for percentage of subjects with a SALT score of ≤20: out to Week 52, pooled interim analysis
Experimental: The SALT score is calculated for a patient/subject by measuring the percentage of hair loss in each of the 4 areas of the scalp and adding the total to achieve a composite score (referred to herein as an absolute SALT score). Hair regrowth is reflected by a decrease in the SALT score. For example, no hair on the scalp would have a SALT score of 100 (i.e., an absolute SALT score) while complete hair regrowth would be a SALT score of 0 (i.e., an absolute SALT score).
Subjects completing 24 weeks of treatment with […] 8 mg twice daily in the Phase III trial were eligible to continue treatment in an open label extension trial. Following 52 additional weeks of treatment with […]™ 8 mg twice daily clinical response rates continued to increase with approximately 74% of the 80 subjects on 8 mg twice daily for 76 weeks achieving SALT ≤20.
The qualifying clinical trials including the following: 1. NCT03137381; 2. NCT03811912; 3. NCT03941548; 4. NCT04784533; 5. NCT04518995; and 6. NCT04797650 (all available a at https://clinicaltrials.gov).
The OLE Efficacy Population is defined as all subjects who received at least one dose of deuruxolitinib and had at least one post-baseline SALT assessment in OLE. The data analyses include subjects' data from the qualifying trial. Missing SALT scores were not imputed. The number of subjects decreases over time due to missing data, patient discontinuations, or subjects not yet at the later timepoints. Any SALT data after a qualifying dose change in the OLE was censored for all figures included here, except those showing the overall treatment sequence. A “qualifying dose change” referred to herein can be placebo in any qualifying trial to any dose of deuruxolitinib in the OLE (includes subjects who switched doses), or any dose of deuruxolitinib in a qualifying trial to any dose of deuruxolitinib in the OLE. Various analyses using SALT scores were conducted to best estimate the overall long-term effect of deuruxolitinib considering the issues with dose changes and decreasing patient numbers over time. “Any Dose” analysis tracks all active subjects over time pooled across the two doses. “As Observed” analysis censors subjects at the time of dose adjustment or study discontinuation. “LOCF” (last observation carried forward) analysis utilizes the last SALT score before dose change and carries it forward for all other timepoints up to 52 weeks.

[1] = test system: adult subjects with moderate to severe AA; assay: Phase III trial: Clinical Global Impression of Improvement (CGI-I); format: in vivo, human; conditions: non-missing data
Experimental: The CGI-I was assessed by the investigator. Compared to the subject's alopecia areata prior to treatment at baseline, the subject's current state of alopecia areata was assessed according to the investigator's perceived change. The investigator selected 1 of 7 numeric choices representing “Very Much Worse” to “Very Much Improved.” To reduce variability, 1 rater was to perform the CGI-I assessment for the subject for the duration of the study.
A Phase III trial was conducted to assess the efficacy and safety of CTP-543 in adult subjects with moderate to severe AA. Approximately 440 adult male and female subjects 18 to 65 years of age, inclusive, with moderate to severe AA participated in the study. Subjects with definitive diagnosis of AA, and at least 50% hair loss, as defined by a SALT score ≥50, who met all of the inclusion criteria and none of the exclusion criteria participated in the study.
The Screening Period lasted up to 28 days prior to initiation of study drug. […] Randomization was stratified by scalp hair loss into 1 of the following 2 categories: 1) partial scalp hair loss (SALT ≥50 and <95), 2) complete or near complete scalp hair loss (SALT ≥95).
Additional secondary efficacy endpoints included the following: • Relative change in SALT scores from baseline at Weeks 4, 8, 12, 16, 20, and 24. • Percentage of responders (defined as “much improved” or “very much improved”) using the Clinical Global Impression of Improvement (CGI-I) at Weeks 12, 16, 20, and 24. • Percentage of responders (defined as “much improved” or “very much improved”) using the Patient Global Impression of Improvement (PGI-I) at Weeks 12, 16, 20, and 24. • Change from baseline in the Clinical Global Impression of Severity (CGI-S) at Weeks 12, 16, 20, and 24. • Change from baseline in the Patient Global Impression of Severity (PGI-S) at Weeks 12, 16, 20, and 24. • Change from baseline on the Brigham Eyebrow Tool for Alopecia (BETA) score at Weeks 12 and 24. • Change from baseline on the Brigham Eyelash Tool for Alopecia (BELA) score at Weeks 12 and 24. • Percentage of subjects achieving at least a 75% relative reduction in SALT score from baseline at Weeks 12 and 24. • Percentage of subjects achieving at least a 90% relative reduction in SALT score from baseline at Weeks 12 and 24. • Percentage of responders (defined as “satisfied” or “very satisfied”) on the SPRO scale at Weeks 12, 16, and 20. • Change from baseline in the SPRO scale at Weeks 12, 16, 20, and 24. • Percentage of subjects achieving a ≥2-point change from baseline in the SPRO scale at Weeks 12, 16, 20, and 24. • Change from baseline on the individual items of the Hair Quality Patient Reported Outcome (QPRO) scale at Weeks 12, 16, 20, and 24. • Change from baseline in the depression scale of the Hospital Anxiety and Depression Scale (HADS) at Week 24. • Change from baseline in the anxiety scale of the HADS at Week 24. • Percentage of subjects achieving an absolute SALT score of ≤20 at Week 4. • Percentage of subjects achieving an absolute SALT score of ≤10 at Week 24
Subjects with responses of “very much improved” or “much improved” were considered CGI-I responders. […] Detailed data are described below. At each visit, the percentage of CGI-I responders (non-missing data) was as follows: […]

[2H]C1([2H])C([C@@H](CC#N)n2cc(-c3ncnc4[nH]ccc34)cn2)C([2H])([2H])C([2H])([2H])C1([2H])[2H] [CTP-543, (R)-3-(4-(7H-pyrrolo[2,3-d]pyrimidin-4-yl)-1H-pyrazol-1-yl)-3-(cyclopentyl-2,2,3,3,4,4,5,5-d8) propanenitrile]
pooled mean SALT score (subjects with AA; 8 mg BID in OLE, placebo in the earlier studies): 30.4
OLE responders who maintained treatment response in the OLE (subjects with AA; 8 mg BID in the OLE without a qualifying dose change, 282 of 283 responders): 99.6%
pooled mean SALT score (subjects with AA; 12 mg BID in OLE, placebo in the earlier studies): 43.0
pooled mean SALT score (subjects with AA; 52 weeks, 8 mg BID in OLE, 8 mg of deuruxolitinib in the earlier studies): 25.6
pooled mean SALT score (subjects with AA; 52 weeks, 8 mg BID or 12 mg BID in OLE, dosed with deuruxolitinib in the earlier studies): 31.7
pooled mean SALT score (subjects with AA; 52 weeks, 8 mg BID or 12 mg BID in OLE, placebo in the earlier studies): 43.6
pooled mean SALT score (subjects with AA; 52 weeks, 12 mg BID in OLE, 12 mg of deuruxolitinib in the earlier studies): 27.7
subjects achieving SALT ≤20 (subjects with AA; 80 subjects on 8 mg twice daily for 76 weeks (24 weeks Phase III + 52 weeks open label extension)): approximately 74%
proportion of participants achieving SALT ≤20 (subjects with AA; OLE at Week 68, any dose (including switched doses), listed as deuruxolitinib): 62.6% and 63%
proportion of participants achieving SALT ≤20 (FIG. 13A) (subjects with AA; Week 68, 8 mg BID): > 80%
patients achieving SALT 10 (subjects with AA; Week 68, 8 mg BID/8 mg BID group, As observed, 179/256): 69.9%
patients achieving SALT 10 (subjects with AA; Week 68, 8 mg BID/8 mg BID group, LOCF, 213/521): 40.9%
proportion of participants achieving SALT ≤20 (subjects with AA; Week 68, 8 mg BID, As Observed (AO), listed as deuruxolitinib): 76.6% and 77%
proportion of participants achieving SALT ≤20 (subjects with AA; Week 68, 8 mg BID, LOCF): 48.8%
proportion of participants achieving SALT ≤20 (subjects with AA; Week 68, 12 mg BID, As Observed (AO), listed as deuruxolitinib): 66.7% and 67%
proportion of participants achieving SALT ≤20 (subjects with AA; Week 68, 12 mg BID, LOCF): 60.9%
patients achieving SALT 10 (subjects with AA; Week 68, placebo/8 mg BID group, As observed, 39/59): 66.1%
patients achieving SALT 10 (subjects with AA; Week 68, placebo/8 mg BID group, LOCF, 41/122): 33.6%
proportion of participants achieving SALT ≤20 (subjects with AA; established in the Qualifying Studies, any dose): 34.9%
Mean SALT score (subjects with AA; out to 68 weeks, any dose in Qualifying Study and OLE, n=836, baseline 86.8 (n=984)): 26.8
percentage of subjects with a SALT score of ≤20 (subjects with AA; 8 mg twice per day in the OLE, listed as deuruxolitinib): 63.6% and 64%
percentage of subjects with a SALT score of ≤20 (subjects with AA; 12 mg twice per day in the OLE, listed as deuruxolitinib): 62.1% and 62%
percentage of subjects with a SALT score of ≤20 (subjects with AA; any dose in the OLE (including switched doses), listed as deuruxolitinib): 57.1% and 57%
percentage of CGI-I responders (very much improved or much improved) ([1]; Week 24, 8 mg BID): 54.1%
percentage of CGI-I responders (very much improved or much improved) ([1]; Week 24, 12 mg BID): 61.7%
percentage of CGI-I responders (very much improved or much improved) ([1]; week 12, 8 mg BID): 38.0%
percentage of CGI-I responders (very much improved or much improved) ([1]; week 12, 12 mg BID): 44.3%
percentage of CGI-I responders (very much improved or much improved) ([1]; week 16, 8 mg BID): 45.0%
percentage of CGI-I responders (very much improved or much improved) ([1]; week 16, 12 mg BID): 52.0%
percentage of CGI-I responders (very much improved or much improved) ([1]; week 20, 8 mg BID): 50.0%
percentage of CGI-I responders (very much improved or much improved) ([1]; week 20, 12 mg BID): 9.0%
